Columns and labels:
human ASK1 = human ASK1 (Homo sapiens (Human), UniProt Q99683); experiment: ASK1 autophosphorylation (Thr838) assay in HEK293 cells overexpressing human ASK1; assay type: cell-based; conditions: for IC50: H2O2-stimulated (1 mM, 10 minutes) ASK1 autophosphorylation at Thr838, HEK293 cells, Mean±Standard Deviation, read-out: HEK pASK1 IC50; for Efficacy (%): HEK pASK1 assay, standard ASK1 inhibitor = 100% inhibition, DMSO vehicle = 0%
[1] = biological target: recombinant human ASK1 (hASK1) catalytic domain (Homo sapiens (Human), UniProt Q99683); experiment: ASK1 enzymatic assay (ADP-Glo Kinase Assay); assay type: biochemical; conditions: for IC50: hASK1 0.25 nM, MKK6 300 nM, ATP 100 uM, Mean±Standard Deviation; for Efficacy (%): hASK1 enzymatic assay, standard ASK1 inhibitor = 100% inhibition, DMSO vehicle = 0%
From the text: ASK1 Inhibitor Effect Determined by ASK1 Enzymatic Assay
The purpose of this assay is to determine the effect of ASK1 inhibitors on the production of ADP by ASK1. The recombinant human ASK1 (hASK1) catalytic domain tagged with Glutathione S-transferase is used, and histidine-tagged full-length human MAP kinase kinase 6 (MKK6) and ATP are the substrate and cofactor, respectively.
The assay is done using an ADP-Glo™ Kinase Assay Kit (Promega, Catalog #V9102) according to the manufacturer's protocol with the following modifications. Briefly, hASK1 (0.25 nM) and MKK6 (300 nM) in a buffer (10 mM MOPS pH 7.0; 10 mM Mg-Acetate; 1 mM DTT; 0.025% NP-40; 0.05% BSA; 1.5% glycerol) are incubated with ASK1 inhibitors at varying concentrations ranging from 10.00 uM to 0.17 nM for 15 minutes, followed by incubation with ATP (100 uM) for 30 minutes at room temperature. ADP-Glo™ Reagent is added to terminate the kinase reaction and deplete the remaining ATP. The Kinase Detection Reagent is then added to convert ADP to ATP. The newly synthesized ATP is measured using a luciferase/luciferin reaction, and the luminescence determined by Envision (PerkinElmer). The luminescence intensities are analyzed by GeneData, and fit to a 4 parameter dose response-inhibitor logistics curve to determine IC50 values, using the effects of 5-(4-cyclopropyl-1H-imidazol-1-yl)-2-fluoro-4-methyl-N-{6-[4-(propan-2-yl)-4H-1,2,4-triazol-3-yl]pyridin-2-yl}benzamide as a standard and DMSO vehicle for 100% and 0% inhibition, respectively.

Sequence of human ASK1 (Q99683 whole entry, the tested form may be a part): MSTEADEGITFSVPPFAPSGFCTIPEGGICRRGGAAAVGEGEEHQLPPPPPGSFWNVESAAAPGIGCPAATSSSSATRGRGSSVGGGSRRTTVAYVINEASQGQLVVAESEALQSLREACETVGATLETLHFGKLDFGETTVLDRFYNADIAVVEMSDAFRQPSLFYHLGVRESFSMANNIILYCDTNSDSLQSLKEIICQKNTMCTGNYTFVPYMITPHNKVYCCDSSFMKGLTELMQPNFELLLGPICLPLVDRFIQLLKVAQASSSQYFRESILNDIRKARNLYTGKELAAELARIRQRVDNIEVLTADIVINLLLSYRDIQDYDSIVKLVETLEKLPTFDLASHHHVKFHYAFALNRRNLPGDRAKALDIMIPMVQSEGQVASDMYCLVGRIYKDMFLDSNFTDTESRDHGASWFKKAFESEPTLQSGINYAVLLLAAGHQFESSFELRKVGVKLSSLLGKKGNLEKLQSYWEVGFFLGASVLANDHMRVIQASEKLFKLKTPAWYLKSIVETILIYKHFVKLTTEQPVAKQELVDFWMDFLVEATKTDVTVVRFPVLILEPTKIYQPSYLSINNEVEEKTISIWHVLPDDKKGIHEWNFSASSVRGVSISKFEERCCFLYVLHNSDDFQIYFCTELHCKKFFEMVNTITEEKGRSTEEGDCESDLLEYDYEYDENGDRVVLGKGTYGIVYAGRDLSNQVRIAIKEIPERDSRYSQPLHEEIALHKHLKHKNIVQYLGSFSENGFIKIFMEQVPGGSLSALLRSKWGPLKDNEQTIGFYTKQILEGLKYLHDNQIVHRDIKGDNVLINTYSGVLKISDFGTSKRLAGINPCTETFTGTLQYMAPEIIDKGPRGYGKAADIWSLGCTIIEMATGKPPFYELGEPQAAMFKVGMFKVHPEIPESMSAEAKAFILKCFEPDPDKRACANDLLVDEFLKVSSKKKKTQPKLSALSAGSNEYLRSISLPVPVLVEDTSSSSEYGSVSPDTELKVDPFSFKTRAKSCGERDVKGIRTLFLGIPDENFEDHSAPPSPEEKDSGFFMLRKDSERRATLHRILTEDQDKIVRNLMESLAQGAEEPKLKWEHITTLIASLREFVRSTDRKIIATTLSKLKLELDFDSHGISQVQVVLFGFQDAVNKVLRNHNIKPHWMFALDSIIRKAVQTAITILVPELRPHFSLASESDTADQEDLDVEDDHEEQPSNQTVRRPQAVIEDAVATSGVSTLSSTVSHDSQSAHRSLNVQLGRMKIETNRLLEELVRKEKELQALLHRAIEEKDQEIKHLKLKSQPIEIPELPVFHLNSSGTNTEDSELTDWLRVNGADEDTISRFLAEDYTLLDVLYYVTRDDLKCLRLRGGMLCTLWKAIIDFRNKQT
Sequence of recombinant human ASK1 (hASK1) catalytic domain (Q99683 680-938): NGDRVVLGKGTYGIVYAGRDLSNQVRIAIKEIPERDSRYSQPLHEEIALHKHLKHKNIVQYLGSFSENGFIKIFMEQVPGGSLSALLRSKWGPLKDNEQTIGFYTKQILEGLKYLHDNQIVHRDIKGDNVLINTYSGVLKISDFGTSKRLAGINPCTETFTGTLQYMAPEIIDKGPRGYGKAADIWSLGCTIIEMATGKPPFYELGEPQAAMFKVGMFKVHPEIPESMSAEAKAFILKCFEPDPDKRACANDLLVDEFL

Row | IC50 (human ASK1) | Efficacy (%) (human ASK1) | IC50 [1] | Efficacy (%) [1] | SMILES
1 | 1.4 µM | 80.5% | 0.036 ± 0.00625 µM | 100% | CC(C)n1cnnc1-c1cccc(N2CCN(CCc3cccnc3)C2=O)n1 [Example 1, 1-[6-(4-Isopropyl-1,2,4-triazol-3-yl)-2-pyridyl]-3-[2-(3-pyridyl)ethyl]imidazolidin-2-one]
2 | 0.886 ± 0.0654 µM | 96.0% | 0.014 ± 0.00261 µM | 100% | CC(C)n1cnnc1-c1cccc(N2CCN([C@H](C)Cn3cnc(C4CC4)c3)C2=O)n1 [Example 2, 1-[(1R)-2-(4-Cyclopropylimidazol-1-yl)-1-methyl-ethyl]-3-[6-(4-isopropyl-1,2,4-triazol-3-yl)-2-pyridyl]imidazolidin-2-one]
3 | 1.13 ± 0.3 µM | 101% | 0.0108 ± 0.00201 µM | 100% | CC(C)n1cnnc1-c1cccc(N2CCN(CCn3cnc(C4CC4)c3)C2=O)n1 [Example 3, 1-[2-(4-Cyclopropylimidazol-1-yl)ethyl]-3-[6-(4-isopropyl-1,2,4-triazol-3-yl)-2-pyridyl]imidazolidin-2-one]
4 | 0.735 µM | 107% | 0.0137 ± 0.00657 µM | 100% | CC(C)n1cnnc1-c1cccc(N2CCN(CCc3cnc(C4CC4)nc3)C2=O)n1 [Example 4, 1-[2-(2-Cyclopropylpyrimidin-5-yl)ethyl]-3-[6-(4-isopropyl-1,2,4-triazol-3-yl)-2-pyridyl]imidazolidin-2-one]
5 | 3.77 µM | 100% | 0.0644 ± 0.0585 µM | 100% | CC(C)n1cnnc1-c1cccc(N2CCNC2=O)n1 [Example 5, 1-(6-(4-Isopropyl-4H-1,2,4-triazol-3-yl)pyridin-2-yl)imidazolidin-2-one]
6 | – | – | 0.0883 ± 0.0218 µM | 100% | Cc1ncc(CCN2CCN(c3cccc(-c4nncn4C(C)C)n3)C2=O)cn1 [Example 6, 1-[6-(4-Isopropyl-1,2,4-triazol-3-yl)-2-pyridyl]-3-[2-(2-methylpyrimidin-5-yl)ethyl]imidazolidin-2-one]
7 | 0.52 µM | 100% | 0.0166 ± 0.00316 µM | 100% | Cc1ccc(CCN2CCN(c3cccc(-c4nncn4C(C)C)n3)C2=O)cn1 [Example 7, 1-[6-(4-Isopropyl-1,2,4-triazol-3-yl)-2-pyridyl]-3-[2-(6-methyl-3-pyridyl)ethyl]imidazolidin-2-one]
